Data as given in patent US20060052455A1, “Composition for preventing treating the xepression of clinical symptom in disease caused by mitochondrial dysfunction” (priority 2002, published 2006).

Test system: MELAS patients
Assay: Intravenous drip infusion of L-arginine monohydrochloride to MELAS patients
Format: in vivo, human
Text: This treatment by intravenous injection is, however, not convenient for MELAS patients, because, in order to receive intravenous injection in the acute stage of cerebral apoplexy-like episode, they have to go to the hospital to receive such intravenous injection immediately after the episode has occurred. […] The scintillating scotoma refers to an abnormal visual field which is one of warning symptoms of a cerebral apoplexy-like episode, and when it occurs, a riffle-like light suddenly appears in a part of the visual field and usually lasts for 5 to 30 minutes. Moreover, administration of a large amount of L-arginine monohydrochloride into a blood vessel may presumably cause side effects such as drop in blood pressure, hydrochloric acidosis, or the like.

SMILES: Cl.N=C(N)NCCC[C@H](N)C(=O)O [L-arginine monohydrochloride]
- treatment of the acute stage of cerebral apoplexy-like episode due to MELAS (intravenous drip infusion, three patients): effective
- improvement of warning symptoms of the episode, particularly scintillating scotoma (intravenous injection): cannot improve
